How the values were obtained:
[1] = target: T1, Metallo-beta-lactamase AIM-1 (Pseudomonas aeruginosa, UniProt B5DCA0); assay: Competitive inhibition of Pseudomonas aeruginosa recombinant AIM1 expressed in Escherichia coli BL21(DE3) using cefuroxime as substrate by UV/Vis multi-plate spectrophotometric method
T1 sequence (B5DCA0 whole entry): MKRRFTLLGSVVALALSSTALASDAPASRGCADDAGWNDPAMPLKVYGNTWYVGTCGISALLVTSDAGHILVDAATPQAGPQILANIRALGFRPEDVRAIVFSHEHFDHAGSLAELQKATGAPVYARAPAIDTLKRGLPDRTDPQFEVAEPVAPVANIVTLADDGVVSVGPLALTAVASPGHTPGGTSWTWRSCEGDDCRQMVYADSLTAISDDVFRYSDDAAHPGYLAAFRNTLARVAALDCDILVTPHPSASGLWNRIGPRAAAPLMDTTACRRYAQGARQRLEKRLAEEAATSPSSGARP

[2] = target: Metallo-beta-lactamase type 2 (Aeromonas hydrophila, UniProt P26918); assay: Competitive inhibition of Aeromonas hydrophila recombinant CphA expressed in Escherichia coli BL21(DE3) using meropenem as substrate by UV/Vis multi-plate spectrophotometric method
Chain of Metallo-beta-lactamase type 2 (P26918 whole entry): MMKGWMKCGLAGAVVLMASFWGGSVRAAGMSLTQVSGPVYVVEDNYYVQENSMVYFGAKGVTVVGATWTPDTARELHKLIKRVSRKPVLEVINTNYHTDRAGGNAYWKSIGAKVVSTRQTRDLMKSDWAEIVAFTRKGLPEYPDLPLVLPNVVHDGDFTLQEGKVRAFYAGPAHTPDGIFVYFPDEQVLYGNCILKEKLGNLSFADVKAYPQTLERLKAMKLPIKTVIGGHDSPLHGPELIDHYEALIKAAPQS

| Ki [1] | Ki [2] | SMILES |
| --- | --- | --- |
| 2.2 µM | 52 µM | N#Cc1c(-c2ccccc2)c(-c2ccccc2)n(Cc2ccccc2)c1N |
| 1.6 µM | 11 µM | N#Cc1c(-c2ccccc2)c(-c2ccccc2)n(Cc2ccccc2)c1NC(=O)c1ccccc1 |
|  | 872 µM | N#Cc1c(-c2ccccc2)c(-c2ccccc2)n(Cc2ccccc2)c1NC(=O)c1ccc(C(=O)c2ccccc2)cc1 |

| SMILES | Ki [1] | Ki [2] |
| --- | --- | --- |
| N#Cc1c(-c2ccccc2)c(-c2ccccc2)n(Cc2ccccc2)c1NC(=O)c1ccc([N+](=O)[O-])cc1 | 10.9 µM |  |
